Experimental data: ChEMBL document CHEMBL6120979, “Cell penetrable peptide nucleic acids targeting PDZK1IP1 with anti-inflammatory potential in human keratinocytes” (Bioorg Med Chem Lett, 2025)
Active and inactive are the calls of the source. The rule behind the calls is not given here.

Columns and labels:
RNA [1] = assay: Binding affinity to complementary RNA (unknown origin) in sodium phosphate buffer assessed as melting temperature of PNA-RNA duplex; format: nucleic-acid assay
RNA [2] = assay: Binding affinity to complementary RNA (unknown origin) with mismatch bases in sodium phosphate buffer; format: nucleic-acid assay
Keratinocyte = assay: Inhibition of PDZK1IP1 mRNA expression in human keratinocytes incubated for 24 hrs by RT-qPCR analysis; format: functional, cell-based

Tm (RNA [1]) [°C]	Activity (RNA [2])	Structure (SMILES)	inhibition (Keratinocyte)
79	inactive	Cc1cn(CC(=O)N(CCNC(=O)CN(CCNC(=O)CN(CCNC(=O)CN(CCNC(=O)CN(CCN)C(=O)Cn2ccc(N)nc2=O)C(=O)Cn2cc(C)c(=O)[nH]c2=O)C(=O)Cn2cc3cc(COCCN)[nH]c3nc2=O)C(=O)Cn2ccc(N)nc2=O)CC(=O)NCCN(CC(=O)NCCN(CC(=O)NCCN(CC(=O)NCCN(CC(=O)NCCN(CC(=O)NCCN(CC(=O)NCCN(CC(=O)NCCN(CC(=O)NCCN(CC(=O)O)C(=O)Cn2cc3cc(COCCN)[nH]c3nc2=O)C(=O)Cn2ccc(N)nc2=O)C(=O)Cn2cnc3c(N)nc(NCCCCCN)nc32)C(=O)Cn2ccc(N)nc2=O)C(=O)Cn2cnc3c(=O)[nH]c(N)nc32)C(=O)Cn2cnc3c(=O)[nH]c(NCCCCCCN)nc32)C(=O)Cn2cc(C)c(=O)[nH]c2=O)C(=O)Cn2cc3cc(COCCN)[nH]c3nc2=O)C(=O)Cn2ccc(N)nc2=O)c(=O)[nH]c1=O	
> 90	inactive	Cc1cn(CC(=O)N(CCNC(=O)CN(CCNC(=O)CN(CCNC(=O)CN(CCNC(=O)CN(CCNC(=O)CN(CCNC(=O)CN(CCNC(=O)CN(CCNC(=O)CN(CCN)C(=O)Cn2cnc3c(N)nc(NCCCCCN)nc32)C(=O)Cn2ccc(N)nc2=O)C(=O)Cn2cnc3c(=O)[nH]c(N)nc32)C(=O)Cn2cnc3c(=O)[nH]c(N)nc32)C(=O)Cn2ccc(N)nc2=O)C(=O)Cn2cc(C)c(=O)[nH]c2=O)C(=O)Cn2cc3cc(COCCN)[nH]c3nc2=O)C(=O)Cn2ccc(N)nc2=O)CC(=O)NCCN(CC(=O)NCCN(CC(=O)NCCN(CC(=O)NCCN(CC(=O)NCCN(CC(=O)NCCN(CC(=O)NCCN(CC(=O)NCCN(CC(=O)NCCN(CC(=O)NCCN(CC(=O)NCCN(CC(=O)O)C(=O)Cn2cnc3c(=O)[nH]c(N)nc32)C(=O)Cn2cnc3c(N)nc(NCCCCCN)nc32)C(=O)Cn2ccc(N)nc2=O)C(=O)Cn2ccc(N)nc2=O)C(=O)Cn2cnc3c(N)nc(NCCCCCN)nc32)C(=O)Cn2ccc(N)nc2=O)C(=O)Cn2cnc3c(=O)[nH]c(N)nc32)C(=O)Cn2cnc3c(=O)[nH]c(NCCCCCCN)nc32)C(=O)Cn2cc(C)c(=O)[nH]c2=O)C(=O)Cn2ccc(N)nc2=O)C(=O)Cn2ccc(N)nc2=O)c(=O)[nH]c1=O	Dose-dependent-effect

The remaining lines, values behind:

Structure (SMILES)	Tm (RNA [1]) [°C]	Activity (RNA [2])	inhibition (Keratinocyte)
Cc1cn(CC(=O)N(CCNC(=O)CN(CCNC(=O)CN(CCNC(=O)CN(CCNC(=O)CN(CCNC(=O)CN(CCN)C(=O)Cn2cnc3c(N)nc(NCCCCCN)nc32)C(=O)Cn2cnc3c(N)ncnc32)C(=O)Cn2cnc3c(=O)[nH]c(N)nc32)C(=O)Cn2cnc3c(=O)[nH]c(N)nc32)C(=O)Cn2cc(C)c(=O)[nH]c2=O)CC(=O)NCCN(CC(=O)NCCN(CC(=O)NCCN(CC(=O)NCCN(CC(=O)NCCN(CC(=O)NCCN(CC(=O)NCCN(CC(=O)NCCN(CC(=O)NCCN(CC(=O)NCCN(CC(=O)NCCN(CC(=O)NCCN(CC(=O)NCCN(CC(=O)NCCN(CC(=O)O)C(=O)Cn2cnc3c(N)nc(NCCCCCN)nc32)C(=O)Cn2ccc(N)nc2=O)C(=O)Cn2cnc3c(N)ncnc32)C(=O)Cn2cnc3c(N)nc(NCCCCCN)nc32)C(=O)Cn2cc(C)c(=O)[nH]c2=O)C(=O)Cn2ccc(N)nc2=O)C(=O)Cn2ccc(N)nc2=O)C(=O)Cn2cnc3c(=O)[nH]c(N)nc32)C(=O)Cn2cnc3c(=O)[nH]c(N)nc32)C(=O)Cn2cnc3c(N)nc(NCCCCCN)nc32)C(=O)Cn2ccc(N)nc2=O)C(=O)Cn2ccc(N)nc2=O)C(=O)Cn2cc3cc(COCCN)[nH]c3nc2=O)C(=O)Cn2ccc(N)nc2=O)c(=O)[nH]c1=O	> 90	inactive	
Cc1cn(CC(=O)N(CCN)CC(=O)NCCN(CC(=O)NCCN(CC(=O)NCCN(CC(=O)NCCN(CC(=O)NCCN(CC(=O)NCCN(CC(=O)NCCN(CC(=O)NCCN(CC(=O)NCCN(CC(=O)NCCN(CC(=O)NCCN(CC(=O)NCCN(CC(=O)NCCN(CC(=O)O)C(=O)Cn2ccc(N)nc2=O)C(=O)Cn2cc3cc(COCCN)[nH]c3nc2=O)C(=O)Cn2cc(C)c(=O)[nH]c2=O)C(=O)Cn2ccc(N)nc2=O)C(=O)Cn2cnc3c(=O)[nH]c(NCCCCCCN)nc32)C(=O)Cn2cnc3c(=O)[nH]c(N)nc32)C(=O)Cn2cnc3c(N)nc(NCCCCCN)nc32)C(=O)Cn2ccc(N)nc2=O)C(=O)Cn2cnc3c(=O)[nH]c(NCCCCCCN)nc32)C(=O)Cn2cc(C)c(=O)[nH]c2=O)C(=O)Cn2cnc3c(=O)[nH]c(NCCCCCCN)nc32)C(=O)Cn2cc(C)c(=O)[nH]c2=O)C(=O)Cn2cnc3c(=O)[nH]c(NCCCCCCN)nc32)c(=O)[nH]c1=O	70.5	inactive	
Cc1cn(CC(=O)N(CCNC(=O)CN(CCNC(=O)CN(CCNC(=O)CN(CCNC(=O)CN(CCNC(=O)CN(CCNC(=O)CN(CCNC(=O)CN(CCNC(=O)CN(CCNC(=O)CN(CCNC(=O)CN(CCNC(=O)CN(CCNC(=O)CN(CCN)C(=O)Cn2cnc3c(N)nc(NCCCCCN)nc32)C(=O)Cn2ccc(N)nc2=O)C(=O)Cn2cc(C)c(=O)[nH]c2=O)C(=O)Cn2ccc(N)nc2=O)C(=O)Cn2cnc3c(N)nc(NCCCCCN)nc32)C(=O)Cn2ccc(N)nc2=O)C(=O)Cn2cnc3c(=O)[nH]c(N)nc32)C(=O)Cn2cnc3c(=O)[nH]c(N)nc32)C(=O)Cn2ccc(N)nc2=O)C(=O)Cn2cc(C)c(=O)[nH]c2=O)C(=O)Cn2cc3cc(COCCN)[nH]c3nc2=O)C(=O)Cn2ccc(N)nc2=O)CC(=O)NCCN(CC(=O)NCCN(CC(=O)NCCN(CC(=O)NCCN(CC(=O)NCCN(CC(=O)NCCN(CC(=O)NCCN(CC(=O)O)C(=O)Cn2cnc3c(N)nc(NCCCCCN)nc32)C(=O)Cn2ccc(N)nc2=O)C(=O)Cn2cnc3c(=O)[nH]c(N)nc32)C(=O)Cn2cnc3c(=O)[nH]c(NCCCCCCN)nc32)C(=O)Cn2cc(C)c(=O)[nH]c2=O)C(=O)Cn2ccc(N)nc2=O)C(=O)Cn2ccc(N)nc2=O)c(=O)[nH]c1=O	> 90	inactive	
Cc1cn(CC(=O)N(CCNC(=O)CN(CCNC(=O)CN(CCN)C(=O)Cn2ccc(N)nc2=O)C(=O)Cn2cc3cc(COCCN)[nH]c3nc2=O)CC(=O)NCCN(CC(=O)NCCN(CC(=O)NCCN(CC(=O)NCCN(CC(=O)NCCN(CC(=O)NCCN(CC(=O)NCCN(CC(=O)NCCN(CC(=O)NCCN(CC(=O)NCCN(CC(=O)NCCN(CC(=O)NCCN(CC(=O)NCCN(CC(=O)NCCN(CC(=O)NCCN(CC(=O)NCCN(CC(=O)NCCN(CC(=O)O)C(=O)Cn2ccc(N)nc2=O)C(=O)Cn2cnc3c(=O)[nH]c(NCCCCCCN)nc32)C(=O)Cn2ccc(N)nc2=O)C(=O)Cn2ccc(N)nc2=O)C(=O)Cn2cnc3c(=O)[nH]c(NCCCCCCN)nc32)C(=O)Cn2cnc3c(=O)[nH]c(N)nc32)C(=O)Cn2cc(C)c(=O)[nH]c2=O)C(=O)Cn2ccc(N)nc2=O)C(=O)Cn2cnc3c(N)ncnc32)C(=O)Cn2cnc3c(N)nc(NCCCCCN)nc32)C(=O)Cn2cnc3c(N)ncnc32)C(=O)Cn2cnc3c(=O)[nH]c(N)nc32)C(=O)Cn2cc(C)c(=O)[nH]c2=O)C(=O)Cn2ccc(N)nc2=O)C(=O)Cn2ccc(N)nc2=O)C(=O)Cn2cnc3c(N)nc(NCCCCCN)nc32)C(=O)Cn2ccc(N)nc2=O)c(=O)[nH]c1=O	79.2	inactive	
